Several values for one entry are separate records, joined by “and”; a condition that tells them apart may be missing. Identical values can stand only once.
What was measured:
[1] = system: rat uterine decidualization; test: Rat decidualization assay; assay type: in vivo; conditions: ovariectomized female Sprague-Dawley rats; for Estimated average EC50 (decidual response) / EC50 for uterine weight (decidual response): s.c.; for Estimated average EC50 (decidual response): average of dose-response curves; for EC50 for uterine weight (decidual response): once daily for seven days, individual studies (Exp)
Description: B. Rat decidualization assay • 1. […] Methods: • a. […] The animals were treated once daily for seven days. […] Dosing • Doses were prepared based upon mg/kg mean group body weight. In all studies, a control group receiving vehicle was included. […] The contralateral horn was not scratched and served as an unstimulated control. Approximately 24 hours following the final treatment, rats were sacrificed by CO2 asphyxiation and body weight measured. Uteri were removed and trimmed of fat. Decidualized (D-horn) and control (C-horn) uterine horns were weighed separately. • 3.
Body weight: Mean total animal body weight (default-kg)
Decidual response: [(D−C)/C]×100%

T47D cells = test: T47D cell proliferation assay (BrdU incorporation); assay type: cell-based
Description: A. T47D cell proliferation assay • 1. Objective: • Determination of progestational and antiprogestational potency was performed by using a cell proliferation assay in T47D cells. A compound's effect on DAN synthesis in T47D cells was measured. • 2. Methods: • a. Reagents: • Growth medium: DMEM:F12 (1:1) (GIBCO, BRL) supplemented with 10% (v/v) fetal bovine serum (not heat-inactivated), 100 U/mL penicillin, […] streptomycin, and 2 mM GlutaMax (GIBCO, BRL). • Treatment medium: Minimum Essential Medium (MEM) (#51200-038GIBCO, BRL) phenol red-free supplemented with 0.5% charcoal stripped fetal bovine serum, 100 U/mL penicillin, […] streptomycin, and 2 mM GlutaMax (GIBCO, BRL). • b. Cell Culture: • Stock T47 D cells were maintained in growth medium. For BrdU incorporation assay, cells were plated in 96-well plates (Falcon, Becton Dickinson Labware) at 10,000 cells/well in growth medium. […] Cell Proliferation Assay: • At the end of BrdU labeling, the medium was removed and BrdU incorporation was measured using a cell proliferation ELISA kit (#RPN 250, Amersham Life Science) according to manufacturer's instructions. […] Then 25 μL of 1 M sulfuric acid was added to each well to stop color reaction and optical density read in a plate reader at 450 nm within 5 minutes. • 3. […] EC50 or IC50 values were calculated from the retransformed values. […]

SMILES	Estimated average EC50 (decidual response) [1]	EC50 for uterine weight (decidual response) [1]	other results
C#C[C@]1(O)CC[C@H]2[C@@H]3CCC4=CC(=O)CC[C@@H]4[C@H]3C(=C)C[C@@]21CC [3-Ketodesogestrel]	0.10 mg/kg, s.c.	0.10 mg/kg, s.c. and 0.06 mg/kg, s.c. and 0.11 mg/kg, s.c.	–
C#C[C@]1(O)CC[C@H]2[C@@H]3CCC4=CC(=O)CC[C@@H]4[C@H]3CC[C@@]21CC [Levonorgestrel]	0.10 mg/kg, s.c.	0.08 mg/kg, s.c. and 0.12 mg/kg, s.c. and 0.09 mg/kg, s.c. (2×)	–
CC(=O)O[C@]1(C(C)=O)CC[C@H]2[C@@H]3C[C@H](C)C4=CC(=O)CC[C@]4(C)[C@H]3CC[C@@]21C [MPA, medroxyprogesterone acetate]	–	0.42 mg/kg, s.c. and 0.39 mg/kg, s.c. (2×)	–
CC(=O)[C@H]1CC[C@H]2[C@@H]3CCC4=CC(=O)CC[C@]4(C)[C@H]3CC[C@]12C [Progesterone]	–	5.50 mg/kg, s.c.	–
CC#C[C@]1(O)CC[C@H]2[C@@H]3CCC4=CC(=O)CCC4=C3[C@@H](c3ccc(N(C)C)cc3)C[C@@]21C [RU486]	–	–	IC50 (T47D cells; read-out: IC50 (half-maximal decrease in trimegestone induced BrdU incorporation), antagonist mode in the presence of 0.03 nM trimegestone, individual studies (Exp)): 0.016 nM and 0.018 nM; IC50 for uterine weight (decrease in EC50 progesterone induced decidual response) ([1]; p.o., with progesterone 5.6 mg/kg, individual studies (Exp.)): 0.21 mg/kg, p.o. and 0.14 mg/kg, p.o.
C[C@H](O)C(=O)[C@@]1(C)CC[C@H]2[C@@H]3CCC4=CC(=O)CCC4=C3CC[C@@]21C [Trimegestone]	–	–	EC50 (T47D cells; agonist mode, individual studies (Exp), read-out: EC50 (half-maximal increase in BrdU incorporation)): 0.017 nM and 0.014 nM and 0.019 nM

Reference: patent US7354915B2 (Wyeth, priority 2003, dated 2008)
